Consider two compounds from ChEMBL document CHEMBL2440076, “New triarylpyrazoles as broad-spectrum anticancer agents: design, synthesis, and biological evaluation” (Eur J Med Chem, 2013).

What all share (type): functional
For one assay, the system named is MDA-MB-231. Nature of the assay: Growth inhibition of human MDA-MB-231 cells assessed as cell growth at 10^-8 M after 48 hrs by sulforhodamine B assay. The conditions noted are these: MDA-MB-231, 48 h, read-out: Activity.
The subject of the next assay is BT-549. Nature of the assay: Growth inhibition of human BT549 cells assessed as cell growth at 10^-4 M after 48 hrs by sulforhodamine B assay. The conditions noted are these: BT-549, 48 h, read-out: Activity.
The next assay has as its system OVCAR-3. Briefly: Growth inhibition of human OVCAR3 cells assessed as cell growth at 10^-6 M after 48 hrs by sulforhodamine B assay. To be noted: OVCAR-3, 48 h, read-out: Activity.
In a further assay the test system is T47D. Briefly: Growth inhibition of human T47D cells assessed as cell growth at 10^-6 M after 48 hrs by sulforhodamine B assay. The conditions noted are these: read-out: Activity.
Another assay has as its system HT-29. Nature of the assay: Growth inhibition of human HT-29 cells assessed as cell growth at 10^-5 M after 48 hrs by sulforhodamine B assay. The conditions noted are these: HT-29, 48 h, read-out: Activity.
The subject of the next assay is NCI-H460. Briefly: Growth inhibition of human NCI-H460 cells assessed as cell growth at 10^-4 M after 48 hrs by sulforhodamine B assay. The conditions noted are these: NCI-H460, 48 h, read-out: Activity.
A further assay deals with MDA-MB-468. Briefly: Growth inhibition of human MDA-MB-468 cells assessed as cell growth at 10^-6 M after 48 hrs by sulforhodamine B assay. To be noted: MDA-MB-468, 48 h, read-out: Activity. A general note: The SRB assay estimates cell density from bound dye.
The subject of the next assay is SK-MEL-2. Nature of the assay: Growth inhibition of human SK-MEL-2 cells assessed as cell growth at 10^-7 M after 48 hrs by sulforhodamine B assay. To be noted: SK-MEL-2, 48 h, read-out: Activity.
The subject of the next assay is TK-10. Briefly: Growth inhibition of human TK10 cells assessed as cell growth at 10^-6 M after 48 hrs by sulforhodamine B assay. The conditions noted are these: TK-10, 48 h, read-out: Activity.
The nature of assay [1]: Growth inhibition of human NCI-ADR-RES cells assessed as cell growth at 10^-4 M after 48 hrs by sulforhodamine B assay. The conditions noted are these: read-out: Activity.

As to `COc1cc(-c2nn(-c3cccc(NC(=O)c4ccccc4)c3)cc2-c2ccncc2)ccc1Cl`, in the assay on MDA-MB-231, the growth at 0.01 µM is 103%. In addition, the growth at 100 µM came to 28% in the assay with BT-549 and 5% in the assay on NCI-H460. Further, the growth at 1 µM in the assay on OVCAR-3 worked out at 4%; with T47D, 58%; in the assay with MDA-MB-468, 17%; in the assay on TK-10, 80%. In addition, the growth at 10 µM in the assay with HT-29 was 7%. In the assay with SK-MEL-2, the growth at 0.1 µM stood at 90%.
As to `COc1cc(-c2nn(-c3cccc(NC(=O)c4ccc(N5CCOCC5)c(C(F)(F)F)c4)c3)cc2-c2ccncc2)ccc1Cl`, in the assay on MDA-MB-231, the growth at 0.01 µM was found to be 95%. The growth at 100 µM with BT-549 worked out at 9%; in assay [1] it was 2%; in the assay with NCI-H460, 1%. The growth at 1 µM was 42% with T47D, -9% in the assay on MDA-MB-468 and 58% with TK-10. In the assay with HT-29, the growth at 10 µM was -43%. Also, in the assay on SK-MEL-2, the growth at 0.1 µM came out at 73%.
